Assay results published in publication PMC7551591, “The Effect of Resveratrol or Curcumin on Head and Neck Cancer Cells Sensitivity to the Cytotoxic Effects of Cisplatin” (Nutrients, 2020).

Key:
Assay type in all cases: cell-based, human
[1] = system: P21 (CDKN1A) gene expression in HUVEC; experiment: Real-time PCR of CDKN1A (P21) gene, normal cells; settings: 24 h, reference gene HPRT, 2^-ΔΔCt vs control
Excerpt: (§1) In order to isolate of total RNA from treated or untreated cells was used TRIzol reagent (Invitrogen)-a monophasic solution of phenol and guanidine isothiocyanate. During the isolation phases, the TRIzol reagent maintains RNA integrity, while disrupting cells and dissolving cell components. The addition of chloroform followed by centrifugation ensures the separation phase of the solution into an aqueous phase and an organic phase. RNA remains in the aqueous phase and is recovered by isopropanol precipitation. The RNA pellet washed once with 75% ice-cold ethanol and entrifuged at 10,000× g for 5 min at 4 °C. The […] is redissolved in nuclease-free water and incubating in a 60 °C water bath for 10 min. The concentration of isolated RNA was assessed using a NanoDrop spectrophotometer ([…], Montchanin, DE, USA). RNA purity was determined by A260/A280 ratios (an […] ratio as close as possible to 2 indicates the presence of highly purified RNA). Reverse transcription of messenger RNA molecules was performed using the High-capacity cDNA Reverse Transcription Kit from Applied Biosystems, using non-specific, randomic primers, following the manufacturer's instructions (Table 1). […] The obtained cDNA was stored at 4 °C and further used in the amplification reaction Real-Time PCR (RT-PCR). […] The samples were analyzed using the formula 2^-ΔΔCt.

[2] = system: p21 protein (CIP1/CDKN1A) expression in HUVEC; experiment: Total p21 protein ELISA in cell lysates, normal cells; settings: 24 h; for n-fold p21 Protein Expression HUVEC: vs control
Experimental: After incubation, cells were washed twice with ice-cold PBS, scraped, pelleted and lysed in RIPA buffer (Pierce) supplemented with protease inhibitor cocktail (Roche) and phosphatase inhibitor (Roche) for 30 min on ice. The lysates were transfered into microcentrifuge tubes and centrifuged at 14,000× g for 5 min at 4 °C followed by sonication (10–15 s × 3). The supernatants were collected into clean microcentrifuge tubes and stored at −80 °C. Lysates protein concentration were quantified by BCA protein assay kit (Thermo Scientific) and aliquots of 50 μg of total cell lysate were used for ELISA assay.
DuoSetR IC ELISA-Human Total p21/CIP1/CDKN1A(: DYC1047-2) was purchased from R&D Systems Inc. and contains the basic components required for the development of sandwich ELISAs to measure human p21 protein also known as CIP1 and CDKN1A in cell lysates. An immobilized capture antibody specifically binds human p21. After washing away unbound material, a biotinylated detection antibody specific for human p21 is used to detect the captured protein, utilizing a standard Streptavidin-HRP format. All experiments were performed in triplicates and absorbance was measured at λ = 450 nm using a Dynex plate reader.
In cancer development and evolution p21 protein might acts as an oncogene or tumor suppressor and for this reason it could be an important player in processes such as the cancer aggressiveness or the response to chemotherapy. In this study, using ELISA assay we analyzed the expression level of p21 in the tumor cells (PE-CA/PJ49) compared to a normal cells (HUVEC).

[3] = system: P21 (CDKN1A) gene expression in PE/CA-PJ49; experiment: Real-time PCR of CDKN1A (P21) gene, tumor cells; settings: 24 h, reference gene HPRT, 2^-ΔΔCt vs control
Excerpt: as §1

PE/CA-PJ49 tumor cells = experiment: Cell cycle phase distribution by PI flow cytometry, tumor cells; settings: 24 h, RSV 40 μM
Experimental: For analysis of cell-cycle distribution, the cells were collected after treatment, fixed with 70% ethanol for at least one hour at 4 °C. The cells were stained with propidium iodide (PI) an agent which intercalates into the major groove of double-stranded DNA and produces a highly fluorescent adduct that can be excited at 488 nm with a broad emission around 600 nm. Since PI can also bind to double-stranded RNA, it is necessary to treat the cells with RNase for optimal DNA resolution. Cells (1×10^6 cells/mL) were washed in PBS and centrifuge at 300× g, 5 min at 4 °C. The pellet of the cells were incubated for 10 min at 37 °C with 0.5 mg/sample RNase A and then was added 10 μg/sample of PI staining solution to cell pellet, mix well and incubated 10 min at 37 °C. The samples stored at 4 °C until analyzed by flow cytometry. A minimum of 20,000 events for each sample were collected using a FACS CantoII flow cytometer and ModFIT software (BectonDickinson) and used to determine the cell cycle phase distribution after debris exclusion.
The progression through the cell cycle phases induced by treatment were evaluated by flow cytometry using a FACSCanto II flow cytometer. Data analysis were performed using the ModFit 3.2 program which offers the possibility of evaluating the cell cycle phases distribution (G0/G1, S, G2 + M).

Compound	n-fold P21 gene expression HUVEC ([1]; 15 μM CRM)	p21 pg/mL HUVEC ([2]; 15 μM CRM)	n-fold p21 Protein Expression HUVEC ([2]; 15 μM CRM)	n-fold P21 gene expression PE/CA-PJ49 ([3]; 15 μM CRM)	n-fold P21 gene expression HUVEC ([1]; 40 μM RSV)	p21 pg/mL HUVEC ([2]; 40 μM RSV)	n-fold p21 Protein Expression HUVEC ([2]; 40 μM RSV)	n-fold P21 gene expression PE/CA-PJ49 ([3]; 40 μM RSV)	G0/G1% (PE/CA-PJ49 tumor cells)	G2/M% (PE/CA-PJ49 tumor cells)
COc1cc(/C=C/C(=O)CC(=O)/C=C/c2ccc(O)c(OC)c2)ccc1O [CRM, Curcumin]	1.39	221 pg/mL	1.21	1.2						
Oc1ccc(C=Cc2cc(O)cc(O)c2)cc1 [RSV, 3,5,4′-trihydroxystilbene]					0.36	148 pg/mL	0.81	3.1	39.05%	19.41%
